Results from patent publication US11849727B2, “Synergistic formulations for control and repellency of biting arthropods” (Bedoukian Research, Inc., priority 2013, dated 2023).

Tested on: Aedes aegypti
Experiment: Arm in Cage testing on human subjects (modified WHO - Nigel Hill protocol), dose response
Assay type: in vivo
Conditions: individual component, LDP Line dose response curve
Method: A Modified WHO-[…] protocol was used for Dose Response curve generation. Three concurrent repetitions were conducted with 4 subjects (2 male, 2 female). Approximately 60 non blood-fed, female Aedes aegypti mosquitoes were placed in a 12''×12''×12'' (28316.85 cm^3) plexi and screen cage. […] Arms were inserted into the first cage for 30 seconds, with number of landings (with intent to bite) recorded at the end of the time interval. The same procedure was used for the 2nd and 3rd cage in succession. Control arm was inserted first, followed by the opposite arm treated with ethanol only (as a treatment control). The 'treatment arm' is then treated with dose 1 and inserted, then dose 2, dose 3, and so on. After complete protection was achieved, control arm was reinserted to verify continued activity. Percent repellency was calculated by utilizing the formula [{(C-T)/C}*100]. Where C=the number of mosquitoes landing with intent to bite on the ethanol only treated arm, and T=the number of mosquitoes landing with intent to bite on the 'repellent' treated arm. LDP Line® software (Bakr, E 2007) was used to determine ED50 (effective dose to repel 50%) and compare materials. […] Significance was determined by the use of 95% confidence intervals. […]

SMILES: CCN(CC)C(=O)c1cccc(C)c1 [DEET, N,N-Diethyl-m-toluamide]
- percent dose required to generate an ED25 (25% repellency): 0.035%
